# According to patent US10960002B2, “Volatile metabolite profiles for the diagnosis and treatment of Mucorales fungi” (The Brigham and Women's Hospital, Inc., priority 2016, dated 2021):
# System: Rhizopus microsporus
# Test: Sequential GC-MS analysis of breath samples from a patient with proven Rhizopus microsporus infection during antifungal therapy
# Assay type: in vivo, human
# Conditions: one patient with proven Rhizopus microsporus infection; from day 0 (start of therapy) over the 28-day treatment course
compound,measurement,value
C[C@@H](c1nc(-c2ccc(C#N)cc2)cs1)[C@](O)(Cn1cncn1)c1cc(F)ccc1F [isavuconazole],"breath levels of three sesquiterpene metabolites (1H-Indene, 2,3,3a,4-tetrahydro-3,3a,6-trimethyl-1-(1-methylethyl)-; cedrene; cedranoxide, 8,14-)",gradual attenuation and disappearance
